Drawing on patent publication US12485121B2, “Antiviral agents for the treatment and prevention of HIV infection” (Pharmasyntez, Joint Stock Company, priority 2020, dated 2025), this text covers IC50 for 29 molecules.

In this test the test system is HIV-1 subtype A strain 12RU 69831. The test is described as follows: Inhibition of HIV-1 reproduction / protection of infected MT-4 cells (living cell concentration, p24 production). It is filed as cell-based. The conditions noted are these: Human immunodeficiency virus 1, MT4, MT-4 cells infected with HIV-1 at a constant virus dose of 300 CCID50; read-out: Activity against HIV-1 12RU 69831 strain (subtype A). The protocol:
Evaluation of HIV reproduction inhibition/protection of human cells by anti-HIV products of the present invention was conducted by measuring change in living cells concentration in experimental wells with MT-4 cells infected with HIV-1, as well as by the production of viral protein p24 with adding different concentrations of compounds according to the present invention. Antiviral activity of products against HIV-1 subtype A strain 12RU 69831 was determined, when the cell culture was infected with a constant dose of virus, corresponding to 300 CCID50.
For the molecule `Cc1cc(C#N)cc(C)c1Oc1nc(Nc2ccc(C#N)cc2)nc2c1CN(C(=O)CN)CC2` [BB0274051, 4-((6-(2-Aminoacetyl)-2-((4-cyanophenyl)amino)-5,6,7,8-tetrahydropyrido[4,3-d]pyrimidine-4-yl)oxy)-3,5-dimethylbenzonitrile], the IC50 came out at 0.00552 µM.

As for `Cc1cc(C#N)cc(C)c1Oc1nc(Nc2ccc(C#N)cc2)nc2c1CCN(CCC(=O)O)CC2` [BB0274143, 3-(4-(4-Cyano-2,6-dimethylphenoxy)-2-((4-cyanophenyl)amino)-8,9-dihydro-5H-pyrimido[4,5-d]azepine-7(6H)-yl)propanoic acid], the IC50 is 0.71 µM.

In the case of `Cc1cc(C#N)cc(C)c1Oc1nc(Nc2ccc(C#N)cc2)nc2c1CN(C(=O)[C@H](N)C(C)C)CC2` [BB0274127, (R)-4-((6-(2-Amino-3-methylbutanoyl)-2-((4-cyanophenyl)amino)-5,6,7,8-tetrahydropyrido[4,3-d]pyrimidine-4-yl)oxy)-3,5-dimethylbenzonitrile], the IC50 came to 12.1 µM.

For `C=CCN1CCc2nc(Nc3ccc(C#N)cc3)nc(Oc3c(C)cc(C#N)cc3C)c2CC1` [BB0274144, 4-((7-Allyl-2-((4-cyanophenyl)amino)-6,7,8,9-tetrahydro-5H-pyrimido[4,5-d]azepine-4-yl)oxy)-3,5-dimethylbenzonitrile], the IC50 came to 1.63 µM.

Regarding `COCC(C)N1CCc2nc(Nc3ccc(C#N)cc3)nc(Oc3c(C)cc(C#N)cc3C)c2CC1` (centres unmarked) [BB0274080], the IC50 was determined as 0.414 µM.

Turning to `Cc1cc(/C=C/C(=O)O)cc(C)c1Oc1nc(Nc2ccc(C#N)cc2)nc2c1CCN(C(=O)OC(C)(C)C)CC2` [BB0273969, (E)-3-(4-((7-(Tert-butoxycarbonyl)-2-((4-cyanophenyl)amino)-6,7,8,9-tetrahydro-5H-pyrimido[4,5-d]azepine-4-yl)oxy)-3,5-dimethylphenyl)acrylic acid], the IC50 was found to be 10700 µM.

For `Cc1cccc(C)c1Oc1nc(Nc2ccc(C#N)cc2)nc2c1CCN(Cc1ccccc1)C2` [BB0273459], the IC50 came to 74.3 µM.

`Cc1cc(C#N)cc(C)c1Oc1nc(Nc2ccc(C#N)cc2)nc2c1CCN(C1CCN(C(=O)OC(C)(C)C)CC1)CC2` [BB0274027, Tert-butyl 4-(4-(4-cyano-2,6-dimethylphenoxy)-2-((4-cyanophenyl)amino)-8,9-dihydro-5H-pyrimido[4,5-d]azepine-7(6H)-yl)piperidine-1-carboxylate]: the IC50 amounted to 37 µM.

For the molecule `Cc1cc(C#N)cc(C)c1Oc1nc(Nc2ccc(C#N)cc2)nc2c1CCN(C(=O)c1ccccn1)CC2` [BB0274010, 4-((2-((4-Cyanophenyl)amino)-7-picolynoyl-6,7,8,9-tetrahydro-5H-pyrimido[4,5-d]azepine-4-yl)oxy)-3,5-dimethylbenzonitrile], the IC50 came out at 0.062 µM.

On to `Cc1cc(C#N)cc(C)c1Oc1nc(Nc2ccc(C#N)cc2)nc2c1CCN(C(=O)[C@@H]1CCCN1C(=O)OC(C)(C)C)CC2` [BB0274065, (S)-Tert-butyl 2-(4-(4-cyano-2,6-dimethylphenoxy)-2-((cyanophenyl)amino)-6,7,8,9-tetrahydro-5H-pyrimido[4,5-d]azepine-7-carbonyl)pyrrolidine-1-carboxylate], for which the IC50 was 41.1 µM.

Regarding `Cc1cc(C#N)cc(C)c1Oc1nc(Nc2ccc(C#N)cc2)nc2c1CCN(C(=O)OC(C)(C)C)CC2` [BB0273972, Tert-butyl 4-(4-cyano-2,6-dimethylphenoxy)-2-((4-cyanophenyl)amino)-8,9-dihydro-5H-pyrimido[4,5-d]azepine-7(6H)-carboxylate], the IC50 was 117 µM.

For the molecule `Cc1cc(C#N)cc(C)c1Oc1nc(Nc2ccc(C#N)cc2)nc2c1CCN(C(=O)Cn1ccnc1)CC2` [BB0274227, 4-((7-(2-(1H-Imidazole-1-yl)acetyl)-2-((4-cyanophenyl)amino)-6,7,8,9-tetrahydro-5H-pyrimido[4,5-d]azepine-4-yl)oxy)-3,5-dimethylbenzonitrile], the IC50 is 0.0125 µM.

On to `Cc1cc(C#N)cc(C)c1Oc1nc(Nc2ccc(C#N)cc2)nc2c1CNCC2` [BB0273963, 4-((2-((4-Cyanophenyl)amino)-5,6,7,8-tetrahydropyrido[4,3-d]pyrimidine-4-yl)oxy)-3,5-dimethylbenzonitrile], for which the IC50 came out at 7.56 µM.

Turning to `Cc1cc(C#N)cc(C)c1Oc1nc(Nc2ccc(C#N)cc2)nc2c1CN(S(C)(=O)=O)CC2` [BB0273964, 4-((2-((4-Cyanophenyl)amino)-6-(methylsulfonyl)-5,6,7,8-tetrahydropyrido[4,3-d]pyrimidine-4-yl)oxy)-3,5-dimethylbenzonitrile], the IC50 is 0.145 µM.

As to `Cc1cc(C2OCCCO2)cc(C)c1Oc1nc(Nc2ccc(C#N)cc2)nc2c1CCN(C(=O)OC(C)(C)C)CC2` [BB0273892], the IC50 was 1220 µM.

For the molecule `Cc1cc(C#N)cc(C)c1Oc1nc(Nc2ccc(C#N)cc2)nc2c1CN(C(=O)[C@H](Cc1ccccc1)NC(=O)OC(C)(C)C)CC2` [BB0274103, (S)-Tert-butyl (1-(4-(4-cyano-2,6-dimethylphenoxy)-2-((4-cyanophenyl)amino)-7,8-dihydropyrido[4,3-d]pyrimidine-6(5H)-yl)-1-oxo-3-phenylpropane-2-yl)carbamate], the IC50 worked out at 228 µM.

On to `Cc1cc(C#N)cc(C)c1Oc1nc(Nc2ccc(C#N)cc2)nc2c1CN(C(=O)c1cnccn1)CC2` [BB0274100, 4-((2-((4-Cyanophenyl)amino)-6-(pyrazine-2-carbonyl)-5,6,7,8-tetrahydropyrido[4,3-d]pyrimidine-4-yl)oxy)-3,5-dimethylbenzonitrile], for which the IC50 came out at 33.8 µM.

For the molecule `Cc1cc(C#N)cc(C)c1Oc1nc(Nc2ccc(C#N)cc2)nc2c1CN(C(=O)OC(C)(C)C)CC2` [BB0273961, Tert-butyl 4-(4-cyano-2,6-dimethylphenoxy)-2-((4-cyanophenyl)amino)-7,8-dihydropyrido[4,3-d]pyrimidine-6(5H)-carboxylate], the IC50 amounted to 42.3 µM.

With `Cc1cc(C#N)cc(C)c1Oc1nc(Nc2ccc(C#N)cc2)nc2c1CN(Cc1cccnc1)CC2` [BB0274138, 4-((2-((4-Cyanophenyl)amino)-6-(pyridine-3-ylmethyl)-5,6,7,8-tetrahydropyrido[4,3-d]pyrimidine-4-yl)oxy)-3,5-dimethylbenzonitrile], the IC50 was found to be 0.00676 µM.

As to `Cc1cc(C#N)cc(C)c1Oc1nc(Nc2ccc(C#N)cc2)nc2c1CCN(C(=O)C1CCNCC1)CC2` [BB0274026, 4-((2-((4-Cyanophenyl)amino)-7-(piperidine-4-carbonyl)-6,7,8,9-tetrahydro-5H-pyrimido[4,5-d]azepine-4-yl)oxy)-3,5-dimethylbenzonitrile], the IC50 was 0.364 µM.

`Cc1cc(C#N)cc(C)c1Oc1nc(Nc2ccc(C#N)cc2)nc2c1CN(C(=O)C1CCCN1C(=O)OC(C)(C)C)CC2` (centres unmarked) [BB0274097, Tert-butyl 2-(4-(4-cyano-2,6-dimethylphenoxy)-2-((4-cyanophenyl)amino)-5,6,7,8-tetrahydropyrido[4,3-d]pyrimidine-6-carbonyl)pyrrolidine-1-carboxylate]: the IC50 came to 664 µM.

In the case of `CSCCC(NC(=O)OC(C)(C)C)C(=O)N1CCc2nc(Nc3ccc(C#N)cc3)nc(Oc3c(C)cc(C#N)cc3C)c2C1` (centres unmarked) [BB0274120, Tert-butyl (1-(4-(4-cyano-2,6-dimethylphenoxy)-2-((4-cyanophenyl)amino)-7,8-dihydropyrido[4,3-d]pyrimidine-6(5H)-yl)-4-(methylthio)-1-oxobutane-2-yl)carbamate], the IC50 amounted to 108 µM.

For `Cc1cc(C#N)cc(C)c1Oc1nc(Nc2ccc(C#N)cc2)nc2c1CN(C(=O)[C@@H](N)CC(C)C)CC2` [BB0274129, (S)-4-((6-(2-Amino-4-methylpentanoyl)-2-((4-cyanophenyl)amino)-5,6,7,8-tetrahydropyrido[4,3-d]pyrimidine-4-yl)oxy)-3,5-dimethylbenzonitrile], the IC50 was 1.04 µM.

As for `Cc1cc(C#N)cc(C)c1Oc1nc(Nc2ccc(C#N)cc2)nc2c1CN(Cc1ccccc1O)CC2` [BB0274140, 4-((2-((4-Cyanophenyl)amino)-6-(2-hydroxybenzyl)-5,6,7,8-tetrahydropyrido[4,3-d]pyrimidine-4-yl)oxy)-3,5-dimethylbenzonitrile], the IC50 turned out to be 27.8 µM.

Regarding `Cc1cc(C#N)cc(C)c1Oc1nc(Nc2ccc(C#N)cc2)nc2c1CN(C(=O)[C@H](CC(C)C)NC(=O)OC(C)(C)C)CC2` [BB0274128, (S)-Tert-butyl (1-(4-(4-cyano-2,6-dimethylphenoxy)-2-((4-cyanophenyl)amino)-7,8-dihydropyrido[4,3-d]pyrimidine-6(5H)-yl)-4-methyl-1-oxopentane-2-yl)carbamate], the IC50 was found to be 113 µM.

`COC(=O)C(=O)N1CCc2nc(Nc3ccc(C#N)cc3)nc(Oc3c(C)cc(C=O)cc3C)c2CC1` [BB0274312, Methyl 2-{2-[(4-cyanophenyl)amino]-4-(4-formyl-2,6-dimethylphenoxy)-5H,6H,7H,8H,9H-pyrimido [4,5-d]azepine-7-yl}-2-oxoacetate]: the IC50 was found to be 34.8 µM.

With `Cc1cc(C#N)cc(C)c1Oc1nc(Nc2ccc(C#N)cc2)nc2c1CCN(S(C)(=O)=O)CC2` [BB0274135, 4-((2-((4-Cyanophenyl)amino)-7-(methylsulfonyl)-6,7,8,9-tetrahydro-5H-pyrimido[4,5-d]azepine-4-yl)oxy)-3,5-dimethylbenzonitrile], the IC50 is 6.13 µM.

Turning to `Cc1cc(C#N)cc(C)c1Oc1nc(Nc2ccc(C#N)cc2)nc2c1CCN(Cc1cccn1C)CC2` [BB0274074], the IC50 was found to be 83.3 µM.

Take `Cc1cc(C#N)cc(C)c1Oc1nc(Nc2ccc(C#N)cc2)nc2c1CN(C(=O)[C@@H](N)CCCCN)CC2` [BB0274131, (S)-4-((2-((4-Cyanophenyl)amino)-6-(2,6-diaminohexanoyl)-5,6,7,8-tetrahydropyrido[4,3-d]pyrimidine-4-yl)oxy)-3,5-dimethylbenzonitrile]: the IC50 worked out at 0.667 µM.
